The values below come from patent US10238631B2, “Sesquiterpene derivatives and their use in inflammation or cancer treatment” (Academia Sinica, priority 2014, dated 2019).

In test [1] the test system is TS/A (ER+, Her2−) murine mammary cancer cells. The test can be described thus: MTT cell viability assay, TS/A cells. Type of test: cell-based. As to conditions: Mus musculus, 24 h, read-out: IC50 on cell viability, TS/A (ER+, Her2−). In short, it runs like this:
(§1)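 Seed 2×10^3 to 1×10^4 cells/well, overnight. Treat with compounds 24 h to 72 h. Add MTT, read OD570. Express survival relative to 0.5% DMSO vehicle (100%).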

Test [2] has as its system MDA-MB-231 (ER−, PR−, Her2−) human breast cancer cells. The test can be described thus: MTT cell viability assay, MDA-MB-231 cells. It is filed as cell-based. The following applies: Homo sapiens, MDA-MB-231, 24 h, read-out: IC50 on cell viability, MDA-MB-231 (ER−, PR−, Her2−). In short, it runs like this: as §1
(Tetrazolium assays rely on reduction of a dye to a coloured formazan, in cell work by metabolically active cells.)

Test [3] relates to MCF-7 (ER+, Her2−) human breast cancer cells. As to the kind of experiment: MTT cell viability assay, MCF-7 cells. The following applies: MCF7, 24 h, read-out: IC50 on cell viability, MCF-7 (ER+, Her2−). Type of test: cell-based. In short, it runs like this: as §1
Test [4] relates to M10 normal mammary epithelial cells. The test can be described thus: MTT cell viability assay, M10 normal cells. Type of test: cell-based, human. As to conditions: Homo sapiens, Epithelial cell, 24 h. In short, it runs like this: as §1
The next test has as its system B16-F10 (NRAS mutation). The test can be described thus: MTT cell viability assay, B16-F10 melanoma. It is filed as cell-based. As to conditions: Mus musculus, B16-F10, 24 h, 24 h, read-out: IC50 on cell viability, B16-F10 (NRAS mutation). In short, it runs like this:
(§2)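 Overnight-seeded cells (2×10^3–1×10^4/well) → compound 24–72 h → MTT, OD570; % viable = treated/vehicle ×100, vehicle 0.5% DMSO.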

In test [5] the test system is MeWo (No NRAS or BRAF mutation). As to the kind of experiment: MTT cell viability assay, MeWo melanoma. The following applies: Homo sapiens, MeWo, 24 h. Type of test: cell-based, human. In short, it runs like this:
as §2

The next test has as its system HTB-68 (NRAS mutation). As to the kind of experiment: MTT cell viability assay, HTB-68 melanoma. It is filed as cell-based, human. The following applies: Homo sapiens, 24 h. In short, it runs like this: as §2
The test system of a further test is A2058 (BRAF mutation). The test can be described thus: MTT cell viability assay, A2058 melanoma. Type of test: cell-based, human. The following applies: Homo sapiens, A2058, 24 h. In short, it runs like this:
as §2

The subject of the next test is A375 (BRAF mutation). As to the kind of experiment: MTT cell viability assay, A375 melanoma. As to conditions: Homo sapiens, A-375, 24 h, 24 h, MTT; read-out: IC50 on cell viability, A375 (BRAF mutation). Type of test: cell-based, human. In short, it runs like this:
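A375 cells were seeded at 2×10^3 to 1×10^4 per well overnight and then exposed to compounds for 24 h to 72 h. Viability was measured by MTT absorbance at OD570 relative to 0.5% DMSO vehicle (100%), and IC50 was derived from it. Combination with PLX4032 was scored by combination index.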

Test [6] relates to Melanocyte (Normal cells). As to the kind of experiment: MTT cell viability assay, normal melanocytes. It is filed as cell-based, human. As to conditions: Homo sapiens, Melanocyte, 24 h. In short, it runs like this:
as §2

Test [7] deals with RAW264.7 (normal macrophage). As to the kind of experiment: MTT cell viability assay, RAW264.7 macrophages. It is filed as cell-based, mouse. The following applies: Mus musculus, RAW264.7, 24 h. In short, it runs like this: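 RAW264.7 macrophages (2×10^5 cells/well) pretreated with compounds 1 h, then incubated 24 h with or without 100 ng/μL LPS. Viability by MTT colorimetric assay run in parallel with Griess nitrite measurement.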

Test [8] concerns LPS-induced nitric oxide (NO) production in RAW 264.7 cells. The test can be described thus: Nitric oxide production in LPS-stimulated macrophages (Griess). Type of test: cell-based, mouse. As to conditions: Mus musculus; LPS-stimulated RAW264.7, nitrite 24 h after LPS. In short, it runs like this:
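RAW 264.7 macrophages (2×10^5 cells/well) were pretreated with compound for 1 h and then stimulated with 100 ng/μL LPS for 24 h. NO was measured as nitrite in the medium by the Griess reaction. Viability was checked in parallel by MTT.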

The subject of test [9] is melanoma cell lines B16-F10, MeWo, A375, A2058, HTB-68. As to the kind of experiment: MTT cell viability assay, all melanoma cell lines. It is filed as cell-based. As to conditions: 24 h, read-out: IC50 values over all types of melanoma cell lines. The method, then:
Normal or cancer cells (2×10^3 to 1×10^4 cells/well) were seeded in 96-well plate for overnight and treated with different compounds for 24 h to 72 h. Cells growth were determined by MTT-based colorimetric assays according to. Viability of the test cells treated with vehicle (0.5% DMSO) only was defined as 100% viable. Survival of cells after treatment with DETDs was calculated using the following formula: viable cell number (%)=OD570 (treated cell culture)/OD570 (vehicle control)×100.
Several genes are involved in melanoma development and pathology; specifically, mutation in V-raf murine sarcoma viral oncogene homolog B1 (B-RAF) occurs approximately 50-60% and in neuroblastoma RAS viral oncogene homolog (N-RAS) occurs about 30% of malignant melanomas. A spectrum of wild-type or mutated melanoma cell lines including B16-F10, MeWo, A375, A2058, HTB-68, and melanocyte were used to study anti-melanoma cell proliferation activity of parental phytocompound DET and newly synthesized DETDs.

For `C=C1C(=O)OC2CC3=C[C@@H](C/C(C)=C/C(OC(=O)Cc4cccc5cc(OC)ccc45)[C@H]12)OC3=O` (some centres unmarked) [DETD-45], the IC50 is 2 µM in [1]; 3.1 µM in test [2]; 3.1 µM in test [3]; 4.7 µM in test [4]; 4.5 µM in the test with B16-F10 (NRAS mutation); 4.5 µM in [5]. Further, the IC50 with HTB-68 (NRAS mutation) was 3.5 µM; in the test with A2058 (BRAF mutation), 3.6 µM; with A375 (BRAF mutation), 1.7 µM; in [6], greater than 10 µM; in test [7], greater than 10 µM; in test [8], 2.8 µM. The IC50 in [9] is 1.6 to 9.9 µM.

`C=C1C(=O)OC2CC3=C[C@@H](C/C(C)=C/C(OC(=O)[C@@H](C)c4ccc5cc(OC)ccc5c4)[C@H]12)OC3=O` (some centres unmarked) [DETD-53]: the IC50 worked out at 4.1 µM in test [1]; 3.8 µM in [2]; 4.1 µM in test [3]; 4.8 µM in test [4]; 5.2 µM with B16-F10 (NRAS mutation); 6 µM in test [5]. Further, the IC50 was 5 µM in the test on HTB-68 (NRAS mutation); 5.5 µM in the test on A2058 (BRAF mutation); 2.8 µM in the test with A375 (BRAF mutation); greater than 10 µM in test [6]; greater than 10 µM in test [7]; 3.5 µM in [8]. In test [9], the IC50 fell in the range of 1.6 to 9.9 µM.

With `C=C1C(=O)OC2CC3=C[C@@H](C/C(C)=C/C(OC(=O)[C@H](C)c4ccc5cc(OC)ccc5c4)[C@H]12)OC3=O` (some centres unmarked) [DETD-54], the IC50 in test [1] was 3.1 µM; in [2] it was 4.9 µM; in test [3] it was greater than 7.5 µM; in test [4], greater than 7.5 µM; in the test on B16-F10 (NRAS mutation), 6.6 µM; in [5], 7.9 µM. For the same molecule, the IC50 was 7 µM in the test on HTB-68 (NRAS mutation); 6.6 µM in the test with A2058 (BRAF mutation); 3.4 µM in the test on A375 (BRAF mutation); greater than 10 µM in [6]; greater than 10 µM in test [7]; greater than 10 µM in [8]. Also, in [9], the IC50 lay in the range of 1.6 to 9.9 µM.

Consider `C=C1C(=O)OC2CC3=C[C@@H](C/C(C)=C/[C@@H](OC(=O)C(C)(OC)c4ccc5ccccc5c4)[C@H]12)OC3=O` (some centres unmarked) [DETD-55], for which the IC50 in [1] was 2.8 µM; in [2], 4.1 µM; in [3], greater than 7.5 µM; in test [4], greater than 7.5 µM; with B16-F10 (NRAS mutation), 4.8 µM; in [5], 9 µM. Also, the IC50 in the test on HTB-68 (NRAS mutation) was 5.3 µM; in the test on A2058 (BRAF mutation), 6.1 µM; in the test with A375 (BRAF mutation), 2.6 µM; in test [6] it was greater than 10 µM; in [7], greater than 10 µM; in test [8], 2.9 µM. For the same molecule, the IC50 in test [9] was in the range of 1.6 to 9.9 µM.

With `C=C1C(=O)OC2CC3=C[C@@H](C/C(C)=C/[C@@H](OC(=O)[C@@H](OC)c4ccc5ccccc5c4)[C@H]12)OC3=O` (some centres unmarked) [DETD-56], the IC50 is 1.9 µM in test [1]; 4.2 µM in test [2]; 4.5 µM in test [3]; greater than 7.5 µM in test [4]; 5.3 µM in the test with B16-F10 (NRAS mutation); 7.6 µM in test [5]. Further, the IC50 in the test with HTB-68 (NRAS mutation) was 4.5 µM; in the test on A2058 (BRAF mutation) it was 5.2 µM; in the test with A375 (BRAF mutation), 2.5 µM; in test [6] it was greater than 10 µM; in test [7], greater than 10 µM; in test [8], 3 µM. For the same molecule, in [9], the IC50 fell in the range of 1.6 to 9.9 µM.

On to `C=C1C(=O)OC2CC3=C[C@@H](C/C(C)=C/[C@@H](OC(=O)Cc4csc5ccccc45)[C@H]12)OC3=O` (some centres unmarked) [DETD-58], for which the IC50 in [1] was found to be 2.1 µM; in test [2], 3.8 µM; in test [3], 3.8 µM; in test [4], 5.8 µM; with B16-F10 (NRAS mutation), 5.6 µM; in [5], 8.3 µM. For the same molecule, the IC50 in the test with HTB-68 (NRAS mutation) was 3.8 µM; in the test with A2058 (BRAF mutation), 5 µM; in the test with A375 (BRAF mutation), 2.1 µM; in test [6] it was greater than 10 µM; in test [7] it was greater than 10 µM; in [8], 3.6 µM. The IC50 in test [9] fell in the range of 1.6 to 9.9 µM.

Regarding `C=C1C(=O)OC2CC3=C[C@@H](C/C(C)=C/[C@@H](OC(=O)/C=C/c4ccc(OCC)cc4)[C@H]12)OC3=O` (some centres unmarked) [DETD-60], the IC50 is 2.1 µM in test [1]; 2.7 µM in [2]; 3.3 µM in [3]; 4 µM in [4]; 4.9 µM with B16-F10 (NRAS mutation); 4.8 µM in test [5]. Further, the IC50 was 4.9 µM in the test on HTB-68 (NRAS mutation); 4.1 µM in the test with A2058 (BRAF mutation); 2 µM in the test on A375 (BRAF mutation); greater than 10 µM in test [6]; greater than 10 µM in test [7]; 3 µM in test [8]. In addition, in test [9], the IC50 fell in the range of 1.6 to 9.9 µM.

Consider `C=C1C(=O)OC2CC3=C[C@@H](C/C(C)=C/[C@@H](OC(=O)/C=C/c4ccc5c(c4)OCO5)[C@H]12)OC3=O` (some centres unmarked) [DETD-61], for which the IC50 turned out to be 2.5 µM in test [1]; 3.4 µM in test [2]; 3.6 µM in [3]; 4.7 µM in test [4]; 6 µM in the test with B16-F10 (NRAS mutation); 6.6 µM in [5]. In addition, the IC50 was 5.5 µM in the test on HTB-68 (NRAS mutation); 5.2 µM in the test with A2058 (BRAF mutation); 2.6 µM in the test on A375 (BRAF mutation); greater than 10 µM in test [6]; greater than 10 µM in test [7]; 3.1 µM in [8]. Also, the IC50 in test [9] fell in the range of 1.6 to 9.9 µM.
